This passage reports IC50 and half-life results from publication PMC5908160, “Inhibition of sperm motility in male macaques with EP055, a potential non-hormonal male contraceptive” (PLoS ONE, 2018).

Data set [1] has as its target EPPIN (Homo sapiens, UniProt O95925). As to the kind of experiment: AlphaScreen assay of a-EAb binding to EPPIN. The note with it: n = 4, read-out: IC50, inhibition of a-EAb binding to EPPIN. On the procedure:
The AlphaScreen® assay was carried as previously described. Briefly, recombinant histidine-tagged recombinant EPPIN was pre-incubated with Ni-NTA chelate donor beads (catalog number AS101, Perkin Elmer, Waltham MA) and anti-Eppin 007 antibody was pre-incubated with Protein A acceptor beads (catalog number 6760136, Perkin Elmer, Waltham MA) for 30 minutes. Equal volumes of donor and acceptor bead mixtures were pipetted into white opaque 384-well microplates (OptiPlate-384; PerkinElmer, Waltham, MA) in a final volume of 30 μL. Plates were covered with top seal and transferred to a Synergy 2 Multiplatform automated plate reader (Biotek, Winooski, VT). After shaking for 2 min, plates were read with an excitation 680/30 filter, an emission 570/100 filter and data acquired using Gen5 software (Biotek). Each set of samples was pipetted in 4 replicates. […] A specific signal for each time point was calculated by subtracting the background signal (obtained in the absence of EPPIN) from its respective total signal. […] Non-specific interactions of compound with assay components were measured at the same time with the IgG detection kit ([…] biotinylated rabbit IgG) to generate the bead interaction: 10 μg/ml donor and acceptor beads. […]
(Bead proximity is the source of the signal in Alpha formats.)

Data set [2] in a line: EP012 plasma half-life in rats. Particulars: rat, iv, preliminary testing, 1 mg/kg i.v. bolus. In kind it is in vivo. On the procedure: Preliminary half-life measurements for EP012 were carried out by Calvert Laboratories ([…]
The intravenous formulation was prepared by mixing an appropriate amount of EP012 (1 mg/kg) with an appropriate volume of intravenous vehicle (DMSO). The pH of the intravenous formulations was confirmed to be 7.4-7.6 and instilled through a syringe filter for sterilization prior to dosing. Three Sprague Dawley male rats (8-14 weeks; 300 to 325 g) were surgically implanted with a catheter in a jugular vein using polyurethane tubing and glycerol or dextrose solution as the lumen lock solution. The intravenous formulation was administered as a bolus injection into a lateral tail vein.
Serial blood samples (~0.30 mL each), were obtained from each animal via the jugular vein catheter at the following timepoints post-dose: 0.083, 0.167, 0.333, 0.5, 1, 2, 4, 8, 12, and 24 hours. Plasma (~125 µL per sample) was harvested following centrifugation of the chilled blood samples at 3000 RPM for 10 minutes at +4 °C. Derived plasma was transferred into prelabeled plastic vials and stored frozen at approximately -70 °C or lower until processing.
Sample preparation and LC-MS/MS analysis were done by OpAns LLC (Durham, NC). Plasma samples (both rat and macaque) were thawed at room temperature and processed by adding 160 µL of methanol (including 10 µL internal standard) to 25 µL of the sample. […]

Data set [3] relates to human sperm. As to the kind of experiment: CASA (Computer Assisted Sperm Analysis) assay of human sperm motility. In kind it is cell-based. The note with it: n = 4 donors, read-out: average relative motility index (RMI) IC50. How it is done: Human semen samples were obtained from the Department of Obstetrics and Gynecology, University of North Carolina Memorial Hospital, Chapel Hill, NC. […] Semen samples were allowed to liquefy for 30 minutes and subjected to standard semen analysis to determine acceptability before freezing. All samples were stored in liquid nitrogen, and de-identified by the Department of Obstetrics and Gynecology, University of North Carolina Memorial Hospital, Chapel Hill, NC before further processing. A density gradient (Isolate catalog number 99264, Irving Scientific, Irving CA, or SpermCare catalog number 2221 and 2222, InvitroCare Inc., Frederick MD) was used to prepare spermatozoa for further analysis. At least 3 independent experiments were done per assay, each using a single donor.
Computer Assisted Sperm Analysis (CASA) was conducted as previously described. Briefly sperm were washed after the density gradient with EP buffer-0.4% BSA and resuspended in modified M16 for compound treatments. Sperm were diluted to 5 x 10^6/mL in 12x75 mm glass tubes with the appropriate treatment and incubated at 37°C in 5% CO2. […] The relative mobility index (RMI) is a measure of the effect of compound on sperm and is calculated as the VSL x %normal motility and normalized to the appropriate DMSO control.

Sequence of EPPIN (O95925 22-133): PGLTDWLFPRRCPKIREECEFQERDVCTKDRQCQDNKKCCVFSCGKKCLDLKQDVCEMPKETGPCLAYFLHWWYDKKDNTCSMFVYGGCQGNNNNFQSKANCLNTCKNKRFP

One may read the IC50 as the midpoint of a concentration-inhibition curve. One may read the half-life as how long it takes for the measured level to halve. In the case of `COC(=O)NNc1nc(Nc2ccc(NC(=O)OC)c(O)c2)nc(SCC(=O)O)n1` [EP012], the 50% inhibitory concentration (IC50) in data set [1] is 55.4 µM; in data set [3] it was 33.4 µM. In data set [2], the half-life was below 4 min.
